From BindingDB's records for doi:10.7270/Q23F4N3R (Burnham Center For Chemical Genomics, 2011)

Assay: HK1 enzyme inhibitors – biochemical, selectivity assay for HKDC1 inhibitor project, dose response (AID 504763)
[1] = inactive by the depositor's call

Question: Which IC50 does the source give for `O=C(O)[C@@H](c1ccccc1)N1Cc2ccccc2C1=O` here?
Answer: Its IC50 is greater than 80 µM.

Question: For `CCOC(=O)c1ccc(NC2=CC(=O)C(=O)c3ccccc32)cc1`, which IC50 is on record?
Answer: The IC50 was greater than 80 µM.

Question: Which IC50 does the source give for `CCc1ccc(S(=O)(=O)N=C2C=C(Sc3nnc[nH]3)C(=O)c3ccccc32)cc1` here?
Answer: The IC50 was 2.85 µM.

Question: Which IC50 does the source give for `COC(=O)c1ccccc1NC1=CC(=NS(=O)(=O)c2ccc(C(=O)O)cc2)c2ccccc2C1=O` here?
Answer: Its IC50 is 5.77 µM.

Question: Which IC50 does the source give for `O=C(O)c1ccc(S(=O)(=O)N=C2C=C(Nc3ccccc3F)C(=O)c3ccccc32)cc1` here?
Answer: The IC50 was 6.02 µM.

Question: Which IC50 does the source give for `CCc1ccc(S(=O)(=O)N=C2C=C(Nc3ccc(C(=O)O)cc3)C(=O)c3ccccc32)cc1` here?
Answer: Its IC50 is 6.89 µM.

Question: With `NC1=CC(=O)C(=O)c2ccccc21` as the compound, how does the IC50 [1] read?
Answer: Its IC50 is 57.8 µM.

Question: With `CC(=O)N(C1=C(Cl)C(=O)c2ccccc2C1=O)C1CCCCC1` as the compound, how does the IC50 read?
Answer: Its IC50 is 10.2 µM.

Question: With `C=CCN1C=C2C(=O)C(C)(OC(=O)CCC(=O)OC)C(=O)C(Br)=C2C=C1c1ccc(OC)cc1` (stereo not drawn) as the compound, how does the IC50 read?
Answer: Its IC50 is greater than 80 µM.

Question: Which IC50 does the source give for `Cc1cccc(-n2c3nc(=O)[nH]c(=O)c-3cc3cc([N+](=O)[O-])ccc32)c1` here?
Answer: Its IC50 is greater than 80 µM.

Question: With `Cc1ccc(/N=C/C2=CC(Cc3ccccc3Cl)C=C([N+](=O)[O-])C2=O)c(O)c1` (stereo not drawn) as the compound, how does the IC50 read?
Answer: Its IC50 is greater than 80 µM.

Question: With `Oc1ccc(CN=Nc2ncc(Br)cn2)c(O)c1` as the compound, how does the IC50 read?
Answer: Its IC50 is greater than 80 µM.

Question: Which IC50 does the source give for `O=c1c2ccccc2nc(/C=C/c2cccnc2)n1CCc1ccccc1` here?
Answer: Its IC50 is greater than 80 µM.

Question: With `Cc1[nH]c2ccccc2c1C1=CC(=O)C=CC1=O` as the compound, how does the IC50 read?
Answer: The IC50 was 9.71 µM.

Question: With `COC(=O)c1ccc(NC(=O)CSc2n[nH]c(-c3ccncc3)n2)cc1` as the compound, how does the IC50 [1] read?
Answer: The IC50 was 22.5 µM.

Question: Which IC50 does the source give for `CCOC(=O)c1ccc(NC(=O)CSc2n[nH]c(-c3ccncc3)n2)cc1` here?
Answer: The IC50 was 10.5 µM.

Question: For `COc1ccc(Cn2c(O)c3[nH]cccc-3c2=O)cc1`, which IC50 is on record?
Answer: Its IC50 is greater than 80 µM.

Question: With `Cc1cc(C)n2nc(SCc3nnc(SCc4ccccc4Cl)s3)nc2n1` as the compound, how does the IC50 [1] read?
Answer: Its IC50 is 23.2 µM.

Question: With `O=C(CSc1nnc(CCCN2C(=O)c3cccc4cccc(c34)C2=O)n1-c1ccccc1)N1CCCCC1` as the compound, how does the IC50 read?
Answer: Its IC50 is 9.74 µM.

Question: With `Cc1ccc(N2C(=O)NC(=O)C(=Cc3cc(C)n(-c4sc5c(c4C#N)CCCC5)c3C)C2=O)cc1` as the compound, how does the IC50 read?
Answer: Its IC50 is greater than 80 µM.

Question: Which IC50 [1] does the source give for `Cc1ccc(-n2c3nc(=O)[nH]c(=O)c-3cc3cc([N+](=O)[O-])ccc32)cc1C` here?
Answer: Its IC50 is 36.6 µM.

Question: For `Cc1ccc2cc(CCNC(=O)c3ccc(S(=O)(=O)N4CCCCC4)cc3)c(O)nc2c1`, which IC50 is on record?
Answer: The IC50 was 6.04 µM.

Question: Which IC50 does the source give for `Cc1nc2c(c(=O)c3ccccc3n2C)c(=O)n1-c1ccccc1` here?
Answer: The IC50 was 15.3 µM.

Question: Which IC50 does the source give for `O=S(=O)(O)c1ccc(O)c2cc(Nc3ccccc3)ccc12` here?
Answer: Its IC50 is greater than 80 µM.

Question: For `NC1=C(Br)C(=O)c2ncccc2C1=O`, which IC50 is on record?
Answer: The IC50 was 13.8 µM.

Question: For `CCCC(=O)NC1=C(Cl)C(=O)c2ccccc2C1=O`, which IC50 is on record?
Answer: Its IC50 is 3.06 µM.

Question: Which IC50 does the source give for `CC(Nc1cc(O)c2cccnc2c1O)C(=O)c1ccccc1` (stereo not drawn) here?
Answer: The IC50 was 75.1 µM.

Question: With `CN1c2ccc(C=O)c3c(C=O)ccc(c23)N(C)C1(C)C` [1,2,2,3-tetramethyl-2,3-dihydro-1H-perimidine-6,7-dicarbaldehyde] as the compound, how does the IC50 read?
Answer: Its IC50 is 18.8 µM.

Question: For `Cc1ccc(C)c(-n2nnnc2Sc2nnnn2-c2ccccc2)c1` [1-(2,5-dimethylphenyl)-5-(1-phenyltetrazol-5-yl)sulfanyltetrazole], which IC50 is on record?
Answer: Its IC50 is greater than 80 µM.

Question: Which IC50 does the source give for `O=C1C(Cl)=C(N2CCC(C(=O)O)CC2)C(=O)c2ccccc21` [1-(3-chloro-1,4-dioxo-2-naphthalenyl)-4-piperidinecarboxylic acid] here?
Answer: Its IC50 is 13.5 µM.

Question: For `COC(=O)C1CN(C#N)N(c2ccc(Cl)cc2)C12c1ccccc1-c1ccccc12` (stereo not drawn) [2'-(4-chlorophenyl)-1'-cyano-4'-spiro[fluorene-9,3'-pyrazolidine]carboxylic acid methyl ester], which IC50 is on record?
Answer: Its IC50 is greater than 80 µM.

Question: Which IC50 does the source give for `O=c1c2ccccc2nc2n1CCC2` [2,3-dihydropyrrolo[2,1-b]quinazolin-9(1H)-one] here?
Answer: Its IC50 is greater than 80 µM.

Question: With `COC1=C(OC)C(=O)C(Sc2ccc3ccccc3c2)=CC1=O` [2,3-dimethoxy-5-naphthalen-2-ylsulfanylcyclohexa-2,5-diene-1,4-dione] as the compound, how does the IC50 read?
Answer: Its IC50 is 7.15 µM.

Question: For `CCN(CC)Cc1cc(O)c(CN(CC)CC)cc1O` [2,5-bis(diethylaminomethyl)benzene-1,4-diol], which IC50 [1] is on record?
Answer: The IC50 was 55.3 µM.

Question: With `CN(C)Cc1cc(O)c(CN(C)C)cc1O` [2,5-bis[(dimethylamino)methyl]benzene-1,4-diol] as the compound, how does the IC50 read?
Answer: The IC50 was greater than 80 µM.

Question: For `CC(C)(C=O)C1=CC(=O)c2ccccc2C1=O` [2-(1,4-dioxo-2-naphthalenyl)-2-methylpropanal], which IC50 is on record?
Answer: Its IC50 is greater than 80 µM.

Question: For `O=C1C(N2CCOCC2)=C(n2nnc3ccccc32)C(=O)c2ccccc21` [2-(1-benzotriazolyl)-3-(4-morpholinyl)naphthalene-1,4-dione], which IC50 is on record?
Answer: Its IC50 is 7.58 µM.

Question: With `COc1ccc(NC(=O)Cc2c[nH]c3ccccc23)cc1S(=O)(=O)N1CCCCC1` [2-(1H-indol-3-yl)-N-(4-methoxy-3-piperidin-1-ylsulfonylphenyl)acetamide] as the compound, how does the IC50 read?
Answer: The IC50 was greater than 80 µM.

Question: Which IC50 does the source give for `O=C(NCCc1ccccc1)C(c1cccs1)N(C(=O)CCl)c1ccc(Cl)cc1` (stereo not drawn) [2-(4-chloro-N-(2-chloro-1-oxoethyl)anilino)-N-(2-phenylethyl)-2-thiophen-2-ylacetamide] here?
Answer: The IC50 was greater than 80 µM.

Question: Which IC50 does the source give for `Cc1nc([N+](=O)[O-])c(Br)n1CC(=O)c1ccc2ccccc2c1` [2-(5-bromanyl-2-methyl-4-nitro-imidazol-1-yl)-1-naphthalen-2-yl-ethanone] here?
Answer: The IC50 was greater than 80 µM.

Question: Which IC50 does the source give for `Cc1ccc(SC2=C(N(C)C)C(=O)c3ccccc3C2=O)cc1` [2-(dimethylamino)-3-[(4-methylphenyl)thio]naphthalene-1,4-dione] here?
Answer: The IC50 was 19.7 µM.

Question: With `Cc1ccc(C(=O)c2c(C)oc3c2C(=O)C(=O)c2ccccc2-3)cc1` [2-Methyl-3-(4-methyl-benzoyl)-naphtho[1,2-b]furan-4,5-dione] as the compound, how does the IC50 [1] read?
Answer: The IC50 was 21.5 µM.

Question: With `Cc1cc(C)c(S(=O)(=O)Nc2cc(SCC(=O)O)c(O)c3ccccc23)cc1C` [2-[1-hydroxy-4-[(2,4,5-trimethylphenyl)sulfonylamino]naphthalen-2-yl]sulfanylacetic acid] as the compound, how does the IC50 read?
Answer: Its IC50 is 14.2 µM.

Question: Which IC50 [1] does the source give for `O=C(O)CSc1cc(NS(=O)(=O)c2cccc([N+](=O)[O-])c2)c2ccccc2c1O` [2-[1-hydroxy-4-[(3-nitrophenyl)sulfonylamino]naphthalen-2-yl]sulfanylacetic acid] here?
Answer: The IC50 was 29.4 µM.

Question: Which IC50 does the source give for `O=C(CSc1nnc(CCCN2C(=O)c3cccc4cccc(c34)C2=O)n1-c1ccccc1)N1CCN(CCO)CC1` [2-[3-[5-[[2-[4-(2-hydroxyethyl)-1-piperazinyl]-2-oxoethyl]thio]-4-phenyl-1,2,4-triazol-3-yl]propyl]benzo[de]isoquinoline-1,3-dione] here?
Answer: The IC50 was 7.31 µM.

Question: Which IC50 does the source give for `Cc1cccc(N2C(=O)NC(=O)C(=Cc3cc(C)n(-c4sc5c(c4C#N)CCCC5)c3C)C2=O)c1C` [2-[3-[(E)-[1-(2,3-dimethylphenyl)-2,4,6-trioxo-1,3-diazinan-5-ylidene]methyl]-2,5-dimethylpyrrol-1-yl]-4,5,6,7-tetrahydro-1-benzothiophene-3-carbonitrile] here?
Answer: Its IC50 is greater than 80 µM.

Question: Which IC50 does the source give for `Cc1ccc(C)c(S(=O)(=O)Nc2cc(SCC(=O)O)c(O)c3ccccc23)c1` [2-[4-[(2,5-dimethylphenyl)sulfonylamino]-1-hydroxynaphthalen-2-yl]sulfanylacetic acid] here?
Answer: Its IC50 is 16.4 µM.

Question: Which IC50 does the source give for `O=C(O)CSc1cc(NS(=O)(=O)c2ccc(Cl)cc2)c2ccccc2c1O` [2-[4-[(4-chlorophenyl)sulfonylamino]-1-hydroxynaphthalen-2-yl]sulfanylacetic acid] here?
Answer: Its IC50 is 16.7 µM.

Question: With `O=C(O)COc1ccc(C=NNC(=O)c2ccc(-c3csc(Nc4ccc(Cl)cc4)n3)cc2)cc1` [2-[4-[[[4-[2-(4-chloroanilino)-1,3-thiazol-4-yl]benzoyl]hydrazinylidene]methyl]phenoxy]acetic acid] as the compound, how does the IC50 read?
Answer: The IC50 was greater than 80 µM.

Question: For `Cc1cc(C)n2cc(CSc3nnc(-c4ccccc4)c(-c4ccccc4)n3)nc2n1` [2-[(5,6-diphenyl-1,2,4-triazin-3-yl)sulfanylmethyl]-5,7-dimethyl-imidazo[1,2-a]pyrimidine], which IC50 is on record?
Answer: The IC50 was 11.4 µM.

Question: With `O=C(CSc1nnc(-c2cccnc2)[nH]1)Nc1ccnc2ccccc12` [2-[(5-pyridin-3-yl-1H-1,2,4-triazol-3-yl)sulfanyl]-N-quinolin-4-yl-ethanamide] as the compound, how does the IC50 read?
Answer: The IC50 was 11 µM.

Question: With `[H]/N=C(\N/C(=N/[H])NCCCCCCNC(=N)NC(=N)Nc1ccc(Cl)cc1)Nc1ccc(Cl)cc1` [2-[amino-[6-[[amino-[(E)-[amino-(4-chloroanilino)methylidene]amino]methylidene]amino]hexylimino]methyl]-1-(4-chlorophenyl)guanidine] as the compound, how does the IC50 read?
Answer: The IC50 was greater than 80 µM.

Question: Which IC50 does the source give for `COc1cc(NC(=O)c2cnc(N)s2)cc(C(=O)Nc2cccc(C(F)(F)F)c2)c1` [2-amino-N-[3-methoxy-5-[[3-(trifluoromethyl)phenyl]carbamoyl]phenyl]-1,3-thiazole-5-carboxamide] here?
Answer: Its IC50 is greater than 80 µM.

Question: For `O=C(C1=C(c2ccccc2)C(=O)c2ccccc2C1=O)c1ccccc1` [2-benzoyl-3-phenylnaphthoquinone], which IC50 is on record?
Answer: The IC50 was 7.24 µM.

Question: Which IC50 does the source give for `CCOc1ccc(-n2c(C)cc(C(=O)CCl)c2C)cc1` [2-chloranyl-1-[1-(4-ethoxyphenyl)-2,5-dimethyl-pyrrol-3-yl]ethanone] here?
Answer: Its IC50 is greater than 80 µM.

Question: For `COc1ccc(-n2c(C)cc(C(=O)CCl)c2C)cc1` [2-chloranyl-1-[1-(4-methoxyphenyl)-2,5-dimethyl-pyrrol-3-yl]ethanone], which IC50 is on record?
Answer: Its IC50 is greater than 80 µM.

Question: Which IC50 does the source give for `CC(=O)n1cc(N(C(=O)CCl)c2ccc([N+](=O)[O-])cc2)c2ccccc21` [2-chloranyl-N-(1-ethanoylindol-3-yl)-N-(4-nitrophenyl)ethanamide] here?
Answer: Its IC50 is greater than 80 µM.

Question: With `O=C1C(Cl)=C(Oc2ccccc2)C(=O)c2ccccc21` [2-chloro-3-phenoxynaphthalene-1,4-dione] as the compound, how does the IC50 read?
Answer: The IC50 was 10 µM.

Question: For `O=C(O)c1cc(N2N=C(C(F)(F)F)/C(=C/C=C/c3ccco3)C2=O)ccc1Cl` [2-chloro-5-[4-[3-(2-furyl)-2-propenylidene]-5-oxo-3-(trifluoromethyl)-4,5-dihydro-1H-pyrazol-1-yl]benzoic acid], which IC50 is on record?
Answer: Its IC50 is greater than 80 µM.

Question: Which IC50 does the source give for `CCn1cc(C(=O)NCc2ccc3c(c2)OCO3)c2cc(OC)c(OC)cc2c1=O` [2-ethyl-1-keto-6,7-dimethoxy-N-piperonyl-isoquinoline-4-carboxamide] here?
Answer: Its IC50 is 18.9 µM.

Question: For `CCC1=NN2C(=N)/C(=C\c3ccc(OCc4cc(=O)n5nc(CC)sc5n4)c(OC)c3)C(=O)N=C2S1` [2-ethyl-7-({4-[(E)-(2-ethyl-5-imino-7-oxo-5H-[1,3,4]thiadiazolo[3,2-a]pyrimidin-6(7H)-ylidene)methyl]-2-methoxyphenoxy}methyl)-5H-[1,3,4]thiadiazolo[3,2-a]pyrimidin-5-one], which IC50 is on record?
Answer: Its IC50 is greater than 80 µM.

Question: Which IC50 [1] does the source give for `Cc1oc2c(c1C(=O)c1ccccc1)C(=O)C(=O)c1ccccc1-2` [2-methyl-3-(phenylcarbonyl)benzo[g][1]benzofuran-4,5-dione] here?
Answer: Its IC50 is 78.3 µM.

Question: With `CC(C)(C)c1c(Cl)c(O)c(-c2ccccc2)c(=O)n1-c1ccccc1` [2-tert-butyl-3-chloranyl-6-oxidanyl-1,5-diphenyl-pyridin-4-one] as the compound, how does the IC50 read?
Answer: Its IC50 is greater than 80 µM.
